Data from patent US11008572B2, “Methods and compositions for modulating splicing” (SKYHAWK THERAPEUTICS, INC., priority 2017, dated 2021).
Like-named read-outs stand apart in the source and are kept apart here.

System: A-673 cells
Assay: Cell viability, crystal violet staining
Format: cell-based
Conditions: Homo sapiens, A673, cell viability
In short: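 Readout is absorbance at 570 nm of crystal violet, taken up in 0.1 M sodium citrate in 50% ethanol after staining with 0.5% dye in 25% methanol. Plates held 5×10^3 cells per well, and compounds were added one day after seeding for 72 hours. Data are relative to vehicle, mean±SE.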

[1] = read-out: A-673 IC50 (nM) Cell viability
[2] = read-out: A-673 IC50 (nM), Cell viability

SMILES | IC50 [1] [nM] | IC50 [2] [nM] | further results
CN(c1ccc(-c2ccc(-n3cc(F)cn3)cc2O)nn1)[C@H]1C[C@]2(C)CC[C@](C)(C1)N2 [compound 175, 2-(6-(((1R,3s,5S)-1,5-dimethyl-8-azabicyclo[3.2.1]octan-3-yl)(methyl)amino)pyridazin-3-yl)-5-(4-fluoro-1H-pyrazol-1-yl)phenol] | 10 to 100 |  | 
Cc1ncc(-c2cc(O)c(-c3ccc(N(C)[C@@H]4C[C@H]5CCC[C@@H](C4)N5)nn3)cc2F)o1 [compound 274, 2-(6-(((1R,3s,5S)-9-azabicyclo[3.3.1]nonan-3-yl)(methyl)amino)pyridazin-3-yl)-4-fluoro-5-(2-methyloxazol-5-yl)phenol] |  | < 10 | 
CCN(c1ccc(-c2ccc(-c3cn[nH]c3)cc2O)nn1)[C@H]1C[C@]2(C)CC[C@](C)(C1)N2 [compound 201, 2-(6-(((1R,3s,5S)-1,5-dimethyl-8-azabicyclo[3.2.1]octan-3-yl)(ethyl)amino)pyridazin-3-yl)-5-(1H-pyrazol-4-yl)phenol] | 10 to 100 |  | 
Cc1ncn(-c2ccc(-c3ccc(N(C)[C@@H]4C[C@H]5CC[C@@H](C4)N5)nn3)c(O)c2)n1 [compound 244, 2-(6-(((1R,3s,5S)-8-azabicyclo[3.2.1]octan-3-yl)(methyl)amino)pyridazin-3-yl)-5-(3-methyl-1H-1,2,4-triazol-1-yl)phenol] |  | 101 to 250 | 
CN(c1ccc(-c2cc(F)c(-c3cc[nH]c(=O)c3)cc2O)nn1)[C@H]1C[C@]2(C)CC[C@](C)(C1)N2 [compound 184, 4-(4-(6-(((1R,3s,5S)-1,5-dimethyl-8-azabicyclo[3.2.1]octan-3-yl)(methyl)amino)pyridazin-3-yl)-2-fluoro-5-hydroxyphenyl)pyridin-2(1H)-one] | 10 to 100 |  | 
Cc1nnc(-c2ccc(-c3ccc(O[C@@H]4C[C@H]5CC[C@@H](C4)N5)nn3)c(O)c2)o1 [compound 247, 2-(6-(((1R,3s,5S)-8-azabicyclo[3.2.1]octan-3-yl)oxy)pyridazin-3-yl)-5-(5-methyl-1,3,4-oxadiazol-2-yl)phenol] |  | > 1000 | 
CN(c1ccc(-c2ccc(-c3ccnc(OC(F)F)c3)cc2O)nn1)[C@H]1C[C@]2(C)CCC[C@](C)(C1)N2 [compound 308, 5-(2-(difluoromethoxy)pyridin-4-yl)-2-(6-(((1R,3s,5S)-1,5-dimethyl-9-azabicyclo[3.3.1]nonan-3-yl)(methyl)amino)pyridazin-3-yl)phenol] |  |  | IC50 (read-out: A-673 IC50 (nM), cell viability): 501 to 1000 nM
CN(c1ccc(-c2ccc(-n3ccc(C#N)c3)cc2O)nn1)[C@H]1C[C@]2(C)CC[C@](C)(C1)N2 [compound 203, 1-(4-(6-(((1R,3s,5S)-1,5-dimethyl-8-azabicyclo[3.2.1]octan-3-yl)(methyl)amino)pyridazin-3-yl)-3-hydroxyphenyl)-1H-pyrrole-3-carbonitrile] | 10 to 100 |  | 
CNC(=O)c1cc2cc(-c3ccc(N(C)[C@@H]4C[C@H]5CCC[C@@H](C4)N5)nn3)c(O)cc2o1 [compound 297, 5-(6-(((1R,3s,5S)-9-azabicyclo[3.3.1]nonan-3-yl)(methyl)amino)pyridazin-3-yl)-6-hydroxy-N-methylbenzofuran-2-carboxamide] |  | 10 to 100 | 
CN(c1ccc(-c2ccc(-c3cnn(C)c(=O)c3)cc2O)nn1)[C@@H]1C[C@H]2CCC[C@@H](C1)N2 [compound 280, 5-(4-(6-(((1R,3s,5S)-9-azabicyclo[3.3.1]nonan-3-yl)(methyl)amino)pyridazin-3-yl)-3-hydroxyphenyl)-2-methylpyridazin-3(2H)-one] |  | 10 to 100 | 
Cc1ncc(-c2ccc(-c3ccc(N(C)[C@@H]4C[C@H]5CCC[C@@H](C4)N5)nn3)c(O)c2)o1 [compound 273, 2-(6-(((1R,3s,5S)-9-azabicyclo[3.3.1]nonan-3-yl)(methyl)amino)pyridazin-3-yl)-5-(2-methyloxazol-5-yl)phenol] |  | < 10 | 
CN(c1ccc(-c2ccc(-c3ncn(C)c(=O)n3)cc2O)nn1)[C@H]1C[C@]2(C)CC[C@](C)(C1)N2 [compound 181, 4-(4-(6-(((1R,3s,5S)-1,5-dimethyl-8-azabicyclo[3.2.1]octan-3-yl)(methyl)amino)pyridazin-3-yl)-3-hydroxyphenyl)-1-methyl-1,3,5-triazin-2(1H)-one] | 251 to 500 |  | 
C[C@]12CCC[C@](C)(C[C@@H](Oc3ccc(-c4ccc(-c5cn[nH]c5)cc4O)nn3)C1)N2 [compound 262, 2-(6-(((1R,3s,5S)-1,5-dimethyl-9-azabicyclo[3.3.1]nonan-3-yl)oxy)pyridazin-3-yl)-5-(1H-pyrazol-4-yl)phenol] |  | 101 to 250 | 
C[C@]12CCC[C@](C)(C[C@@H](Oc3ccc(-c4cc(F)c(-c5cn[nH]c5)cc4O)nn3)C1)N2 [compound 263, 2-(6-(((1R,3s,5S)-1,5-dimethyl-9-azabicyclo[3.3.1]nonan-3-yl)oxy)pyridazin-3-yl)-4-fluoro-5-(1H-pyrazol-4-yl)phenol] |  | < 10 | 
[2H]C([2H])([2H])Oc1cc(-c2ccc(-c3ccc(N(C)[C@H]4C[C@]5(C)CCC[C@](C)(C4)N5)nn3)c(O)c2)cnn1 [compound 268, 2-(6-(((1R,3s,5S)-1,5-dimethyl-9-azabicyclo[3.3.1]nonan-3-yl)(methyl)amino)pyridazin-3-yl)-5-(6-(methoxy-d3)pyridazin-4-yl)phenol] |  | < 10 | 
COc1cc(-c2ccc(-c3ccc(N(C)[C@H]4C[C@]5(C)CC[C@](C)(C4)N5)nn3)c(O)c2)cc(F)n1 [compound 189, 2-(6-(((1R,3s,5S)-1,5-dimethyl-8-azabicyclo[3.2.1]octan-3-yl)(methyl)amino)pyridazin-3-yl)-5-(2-fluoro-6-methoxypyridin-4-yl)phenol] | 10 to 100 |  | 
